Marks after values point to notes of the source that are not given here.
Experiments:
[1] = Potentiometric titration for pK and pI; type: physicochemical; conditions: 12 µmol peptide, room temperature
Protocol: Potentiometric titrations were performed to determine acid–base constants at room temperature using a potentiometric cell with a combined glass electrode and OMINS titration system (Metrohm). An OMNIS Digital Burette with an accuracy of ±0.01 mL was used to precisely add the titrant portions to the titrated aliquot (12 µmol) of the stock solution of the peptide compounds. The potentiometric titration results were processed mathematically to construct the titration curves and calculate the acid–base constants according to […] [16]. Isoelectric points correspond to pH points where the analyte and titrant interact in equimolar amounts (pH at the equivalence point).

[2] = test system: psychomotor seizures (6-Hz test) in mice; assay: 6-Hz test; type: in vivo; conditions: i.c.v.; for No. of Animals Protected/No. of Animals Tested: 10 min after infusion
Protocol: (§1) The spinorphin peptide analogues (S, Dm-S, Dm-S5, and Dm-S6 or PhS, PhS5, and PhS6) were administered intracerebroventricularly (i.c.v.) (10 μL/ventricle) at doses of 0.6, 1.2, and 2.4 μg, respectively, using a 28-gauge stainless-steel needle attached to a 50-μL Hamilton® syringe as previously described. The matched group (control) was treated with a vehicle. The seizure test was performed 10 min after the i.c.v. infusion.
6-Hz test. Psychomotor seizures were induced by corneal electrodes (constant current shock generator, 32 mA, 6 Hz, 3 s) as previously described. The return to a normal position, 10 s after stimulation, was used as a criterion for protection against psychomotor seizures.

[3] = test system: generalized seizures (MES test) in mice; assay: Maximal electroshock (MES) test; type: in vivo; conditions: i.c.v.
Protocol: as §1
The generalized seizures were induced through a stronger stimulus of 50 mA, 60 Hz, 0.2 s, applied via the same corneal electrodes, in each mouse tested. The suppression of tonic hind limb extension, replaced by a clonic seizure, was accepted as a valid criterion for the anticonvulsant potency of the drug.

[4] = test system: ivPTZ-induced myoclonic, clonic and tonic seizures in mice; assay: Intravenous pentylenetetrazole seizure (ivPTZ) test; type: in vivo; conditions: i.c.v., doses of 0.62 µg and 1.25 µg, vs. vehicle-infused control (p < 0.05; p < 0.01)
Protocol: as §1
Intravenous Pentylenetetrazole Seizure (ivPTZ) Test The convulsant pentylenetetrazole (PTZ) (1%), dissolved in saline, was infused (0.005 mL/s) into a tail vein as previously performed. The activity to raise the threshold of ivPTZ-induced myoclonic, clonic, and tonic seizures and concentrations, quantity of infusion (mL), and mouse body weight were recorded.

[5] = test system: Escherichia coli; assay: Antibacterial disc diffusion; type: cell-based; conditions: 20 µL of 50 mg/mL on 6 mm disc, 24 h, 37 °C
Protocol: Antibacterial activity is carried out with reference to the slightly modified method of Murray et al.. The bacteria used were Staphylococcus aureus, Escherichia coli, and Bacillus cereus. To test the antibacterial activity of 6 peptides, it is carried out as follows: taking 100 μL of spectrum bacteria ([…] bacteria) spread on the nutrient agar medium (NA). Furthermore, a paper disc (6 mm in diameter) was placed and then 20 μL of extract with a concentration of 50 mg/mL was dripped onto it. As a positive control, we used […] of chloramphenicol on the paper disc. DMSO 10% is used as a negative control according to peptide solvents. The treatment was repeated three times and then incubated for 24 h at a temperature of 37 °C. After that, an inhibitory power test measurement was carried out by measuring the diameter of the clear zone formed.

[6] = isoelectric point = pH at equivalence point, potentiometric titration
[7] = potentiometric titration with NaOH, aqueous

H-LVVYPWT-NH2 [S, H-Leu-Val-Val-Tyr-Pro-Trp-Thr-NH2]
pI1 [1, 6]: 4.91
pI2 [1, 6]: 8.31
pKa1 [1, 7]: 3.15
pKa2 [1, 7]: 6.78
% Protection ([2]; dose 0.62 µg/10 µL): 50%
No. of Animals Protected/No. of Animals Tested ([2]; dose 0.62 µg/10 µL): 3/6
% Protection ([2]; dose 1.25 µg/10 µL): 50%
No. of Animals Protected/No. of Animals Tested ([2]; dose 1.25 µg/10 µL): 3/6
% Protection ([2]; dose 2.5 µg/10 µL): 67% *
No. of Animals Protected/No. of Animals Tested ([2]; dose 2.5 µg/10 µL): 4/6
% Mortality ([3]; MES test, dose 0.62 µg/10 µL): 0%
% Mortality ([3]; MES test, dose 1.25 µg/10 µL): 30%
% Mortality ([3]; MES test, dose 2.5 µg/10 µL): 50%
% Protection ([3]; MES test, dose 2.5 µg/10 µL): 50%
No. of Animals Protected/No. of Animals Tested ([3]; MES test, dose 2.5 µg/10 µL, 10 min after infusion): 3/6
Activity in the MES test (in words) ([3]; text summary of Tables 4 and 5): inactive
Activity against myoclonic twitching, clonic seizures and forelimb tonic seizures (ivPTZ) [4]: anticonvulsant activity
Antibacterial activity against E. coli (inhibitory zone, in words) [5]: outperformed peptide analogues
